{
  "source": "patent US20250025445A1",
  "about": "“METHOD OF CARDIOPROTECTION” (Race Oncology LTD., priority 2021, published 2025)",
  "key": {"[1]": {"conditions": "cited from earlier work"}, "[2]": {"experiment": "Doxorubicin cardiotoxicity in mice: blood tests", "conditions": "doxorubicin 5 mg/kg alone", "source_text": "(§2) In particular, well established cardiotoxicity markers, including left ventricular fractional shortening, heart E/A ratio, left ventricular diastolic function, left ventricular dilatation, cardiac output, plasma triglyceride levels, plasma creatine kinase-MB (CK-MB), plasma LDH (lactate dehydrogenase) and plasma brain natriuretic peptide (BNP) were monitored over a period of up to 42 days following the start of treatments delivered weekly, four times (and therefore final treatment on day 21).\n(§3) Treatments were delivered to mice intravenously on days 0, 7, 14 and 21. Mice underwent echocardiography measurements at days 0, 21 and 42 to determine LVEF, FS, EDV, ESV, CO, E wave, A wave, E′, E/A, and E/E′, and blood samples were taken at days 0, 21 and 42 to assay for cardiac troponin I levels, BNP levels, CK, LDH levels and triglycerides."}, "[3]": {"conditions": "cited from earlier work", "remark": "listed apart in the source"}, "[4]": {"conditions": "doxorubicin 5 mg/kg alone", "source_text": "as §2, §3"}, "[5]": {"system": "Primary Human Cardiac Myocytes (HCMs)", "experiment": "Primary human cardiomyocyte cell viability (CellTiter-Glo)", "format": "cell-based", "conditions": "up to 72 hours; for mitigation of toxicity of carfilzomib towards primary HCMs: FTO inhibitor 0-10 μM with 1 μM carfilzomib; for mitigation of toxicity of doxorubicin towards primary HCMs: FTO inhibitor 0-10 μM with 1 μM doxorubicin", "description": "Primary Human Cardiac Myocytes (HCMs) were purchased from PromoCell® (Heidelberg, Germany) and cultured according to manufacturer's recommendations using PromoCell® Myocyte growth media (5% [v/v] foetal calf serum, 0.5 ng/ml recombinant human epidermal growth factor, 2 ng/ml recombinant human basic fibroblast growth factor, 5 μg/ml recombinant human insulin) supplemented with 1% [v/v] Penicillin-Streptomycin [Sigma-Aldrich]). Briefly, 1×10^6 HCMs were seeded and grown in Corning® T75 flasks (Sigma-Aldrich, New South Wales, Australia) in an incubator at 37° C. under 5% CO2 conditions. At 80-90% confluency, HCMs were gently detached using the DetachKit (PromoCell®), collected into Corning® 50 mL centrifuge tubes (Sigma-Aldrich), and centrifuged at 300×g for 10 mins at room temperature. The resulting supernatant were discarded and HCM pellet was resuspended with 5-10 mL of pre-warmed Myocyte Growth Medium. Total viable cells were enumerated with Invitrogen™ Countess Cell Counter (Thermo Fisher Scientific, New South Wales, Australia) and 1×10^5 live HCMs were seeded in triplicate into Corning® 96-well white polystyrene microplate (Sigma).\n(§1) Dox, Dauno and Epi, were dissolved in sterile water to make a stock concentration of 20 mM, respectively, while Tz was dissolved in sterile PBS to a stock concentration of 100 μM. […] The concentrations were as follows 0 nM, 15.62 nM, 62.5 nM, 250 nM, 500 nM, 1 μM, 5 μM, and 10 μM. […] Vehicle controls were incubated with media supplemented with either sterile water or DMSO. […] This was repeated at 48 hours and 72 hours. […] Both FB23/2 and brequinar (MedChemExpress) were dissolved in dimethyl sulfoxide (DMSO; Sigma-Aldrich) to make a stock concentration of 40 mM and 20 mM respectively."}, "[6]": {"system": "MCF7 breast cancer cells", "experiment": "MCF7 breast cancer cell viability (CellTiter-Glo)", "format": "cell-based, human", "conditions": "FTO inhibitor up to 10 μM with 1 μM doxorubicin; up to 72 hours; FIG. 13", "description": "Human breast adenocarcinoma (MCF7) cells were purchased from In Vitro Technologies (Victoria, Australia) and cultured according to manufacturer's recommendations using MCF7 growth media, Low glucose Dulbecco's Modified Eagle's medium (DMEM; Sigma-Aldrich, Australia) supplemented with 10% (v/v) foetal calf serum (Sigma-Aldrich) and 1% (v/v) Penicillin-Streptomycin (Sigma-Aldrich). Briefly, 1×10^6 MCF7 were seeded and grown in Corning® T75 flasks (Sigma-Aldrich) in an incubator at 37° C. under 5% CO2 conditions. At 80-90% confluency, MCF7 were washed with Dulbecco's Phosphate Buffered Saline (Sigma-Aldrich) for 30s at room temperature and followed by incubation with Trypsin-EDTA (Sigma-Aldrich) for 5 mins at 37° C. under 5% CO2 conditions. Trypsin solution was then neutralised with 1:1 volume of MCF7 growth media. The cell suspensions were then collected into Corning® 50 mL centrifuge tubes (Sigma-Aldrich) and centrifuged at 300×g for 10 mins at room temperature. The resulting supernatants were discarded and MCF7 pellets were resuspended with 5-10 mL of pre-warmed MCF7 growth media. Total viable cells were enumerated with Invitrogen™ Countess Cell Counter (Thermo Fisher Scientific, New South Wales, Australia) and 9×10^4 live MCF7 were seeded in triplicate into Corning® 96-well white polystyrene microplate (Sigma).\nas §1"}, "[7]": {"system": "H929 multiple myeloma cells", "experiment": "H929 multiple myeloma cell viability (CellTiter-Glo)", "format": "cell-based, human", "conditions": "FTO inhibitor up to 10 μM with 1 μM doxorubicin; up to 72 hours", "description": "Human multiple myeloma NCI-H929 cells were cultured using RPMI-1640 growth media (Sigma-Aldrich), supplemented with 2 mM L-glutamine (Thermo Fisher Scientific), 10% (v/v) foetal calf serum (Sigma-Aldrich) and 0.05 mM 2-mercaptoethanol (Sigma-Aldrich). Briefly, 0.5×10^6 H929 were seeded and grown in Corning® T75 flasks (Sigma-Aldrich) in an incubator at 37° C. under 5% CO2 conditions. At 80-90% confluency, the cell suspension was then collected into Corning® 50 mL centrifuge tubes (Sigma-Aldrich) and centrifuged at 300×g for 10 mins at room temperature. The resulting supernatant were discarded and H929 pellet was resuspended with 5-10 mL of pre-warmed H929 growth media. Total viable cells were enumerated with Invitrogen™ Countess Cell Counter (Thermo Fisher Scientific, New South Wales, Australia) and 1×10^4 live H929 were seeded in triplicate into Corning® 96-well white polystyrene microplate (Sigma). […] The concentrations were as follows 0 nM, 15.62 nM, 62.5 nM, 250 nM, 500 nM, 1 μM, 5 μM, and 10 μM. […] Vehicle controls were incubated with media supplemented with either sterile water or DMSO. […] This was repeated at 48 hours and 72 hours. […] Both FB23/2 and brequinar (MedChemExpress) were dissolved in dimethyl sulfoxide (DMSO; […]"}, "[8]": {"conditions": "i.v. weekly x4, day 21, worsening by day 42"}, "[9]": {"conditions": "42 days after start of treatment"}},
  "note": "Like-named read-outs stand apart in the source and are kept apart here.",
  "data": [
    {"smiles": "CC(C)C[C@H](NC(=O)[C@H](CCc1ccccc1)NC(=O)CN1CCOCC1)C(=O)N[C@@H](Cc1ccccc1)C(=O)N[C@@H](CC(C)C)C(=O)[C@@]1(C)CO1", "note": "[carfilzomib]", "values": [
      {"measurement": "patients with cardiotoxicity", "setting": "[1]", "value": "up to 10%"}
    ]},
    {"smiles": "COc1cccc2c1C(=O)c1c(O)c3c(c(O)c1C2=O)C[C@@](O)(C(=O)CO)C[C@@H]3O[C@H]1C[C@H](N)[C@H](O)[C@H](C)O1", "note": "[doxorubicin]", "values": [
      {"measurement": "plasma CK-MB", "setting": "[2]; day 21", "value": "significant increase"},
      {"measurement": "plasma triglyceride levels", "setting": "[2]; day 21 and day 42", "value": "significantly elevated"},
      {"measurement": "congestive heart failure incidence", "setting": "[3]; lifetime cumulative doxorubicin exposure limited to 400-450 mg/m^2", "value": "less than 58"},
      {"measurement": "incidence of congestive heart failure", "setting": "[3]; patients received doxorubicin at 400 mg/m^2", "value": 4.78},
      {"measurement": "incidence of congestive heart failure", "setting": "[3]; patients received doxorubicin at 550 mg/m^2", "value": 26, "unit": "%"},
      {"measurement": "incidence of congestive heart failure", "setting": "[3]; patients received doxorubicin at 700 mg/m^2", "value": 48, "unit": "%"},
      {"measurement": "heart E/A ratio", "setting": "[4]; [8]", "value": "significant cardiotoxic effects"},
      {"measurement": "left ventricular fractional shortening", "setting": "[4]; [8]", "value": "significant cardiotoxic effects"},
      {"measurement": "cardiac output", "setting": "[4]; [9]", "value": "significant cardiotoxic effects"},
      {"measurement": "left ventricular diastolic function", "setting": "[4]; [9]", "value": "significant cardiotoxic effects"},
      {"measurement": "left ventricular dilatation", "setting": "[4]; [9]", "value": "significant cardiotoxic effects"},
      {"measurement": "cardiac output", "setting": "[4]; day 21", "value": "not significantly so"},
      {"measurement": "left ventricular diastolic function", "setting": "[4]; day 21", "value": "not significantly so"},
      {"measurement": "left ventricular dilatation", "setting": "[4]; day 21", "value": "not significantly so"}
    ]},
    {"smiles": "Cc1c(-c2ccc(-c3ccccc3F)cc2)nc2ccc(F)cc2c1C(=O)O", "note": "[brequinar]", "values": [
      {"measurement": "mitigation of toxicity of carfilzomib towards primary HCMs", "setting": "[5]", "value": "did not mitigate the toxicity"},
      {"measurement": "mitigation of toxicity of doxorubicin towards primary HCMs", "setting": "[5]", "value": "did not mitigate the toxicity"},
      {"measurement": "increased loss of viability of MCF7 cells cultured with doxorubicin", "setting": "[6]", "value": "neither brequinar nor FB23/2, at concentrations of up to 10 μM, resulted in any increased loss of viability"},
      {"measurement": "increased loss of viability of H929 cells cultured with doxorubicin", "setting": "[7]", "value": "neither brequinar nor FB23/2, at concentrations of up to 10 μM, resulted in any increased loss of viability"}
    ]},
    {"smiles": "Cc1noc(C)c1-c1cc(Cl)c(Nc2ccccc2C(=O)NO)c(Cl)c1", "note": "[FB23/2]", "values": [
      {"measurement": "mitigation of toxicity of carfilzomib towards primary HCMs", "setting": "[5]", "value": "did not mitigate the toxicity"},
      {"measurement": "mitigation of toxicity of doxorubicin towards primary HCMs", "setting": "[5]", "value": "did not mitigate the toxicity"},
      {"measurement": "increased loss of viability of MCF7 cells cultured with doxorubicin", "setting": "[6]", "value": "neither brequinar nor FB23/2, at concentrations of up to 10 μM, resulted in any increased loss of viability"},
      {"measurement": "increased loss of viability of H929 cells cultured with doxorubicin", "setting": "[7]", "value": "neither brequinar nor FB23/2, at concentrations of up to 10 μM, resulted in any increased loss of viability"}
    ]}
  ]
}
